{"source": "paper PMC8397297", "about": "(ACS Chemical Neuroscience, 2021)", "key": {"mGAT1 [1]": {"molecular_target": "T1, mGAT1 (Mus musculus, UniProt P31648)", "T1 construct": "expressed in transfected cells; host or cells: HEK-293", "test": "[3H]GABA uptake assay in HEK-293 cells stably expressing mGAT1", "format": "cell-based", "details": "for IC50: [3H]GABA uptake, read-out: pIC50 ± SEM mGAT1 (converted)"}, "mGAT3": {"molecular_target": "T2, mGAT3 (Mus musculus, UniProt P31649)", "T2 construct": "expressed in transfected cells; host or cells: HEK-293", "T2 sequence (P31649 1-602)": "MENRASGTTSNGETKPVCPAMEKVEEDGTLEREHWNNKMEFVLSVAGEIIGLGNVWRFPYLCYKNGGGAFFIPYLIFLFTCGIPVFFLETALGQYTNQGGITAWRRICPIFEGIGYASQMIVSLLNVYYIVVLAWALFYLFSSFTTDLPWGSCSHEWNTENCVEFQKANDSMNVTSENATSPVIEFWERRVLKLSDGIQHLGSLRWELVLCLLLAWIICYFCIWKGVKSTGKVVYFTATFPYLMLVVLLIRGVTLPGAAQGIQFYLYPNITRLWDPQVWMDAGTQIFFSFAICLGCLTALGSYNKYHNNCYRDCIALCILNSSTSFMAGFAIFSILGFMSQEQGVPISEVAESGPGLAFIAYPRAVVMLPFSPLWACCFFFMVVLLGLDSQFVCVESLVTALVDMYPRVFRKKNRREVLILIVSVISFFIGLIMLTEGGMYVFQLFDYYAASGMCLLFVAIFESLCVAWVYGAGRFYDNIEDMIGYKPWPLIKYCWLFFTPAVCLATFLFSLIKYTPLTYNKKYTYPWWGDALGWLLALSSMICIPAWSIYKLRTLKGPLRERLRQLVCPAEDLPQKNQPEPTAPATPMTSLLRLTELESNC", "test": "[3H]GABA uptake assay in HEK-293 cells stably expressing mGAT3", "format": "cell-based", "details": "[3H]GABA uptake; read-out: pIC50 ± SEM mGAT3 (converted)"}, "mGAT4": {"molecular_target": "T3, mGAT4 (Mus musculus, UniProt P31650)", "T3 construct": "expressed in transfected cells; host or cells: HEK-293", "T3 sequence (P31650 1-627)": "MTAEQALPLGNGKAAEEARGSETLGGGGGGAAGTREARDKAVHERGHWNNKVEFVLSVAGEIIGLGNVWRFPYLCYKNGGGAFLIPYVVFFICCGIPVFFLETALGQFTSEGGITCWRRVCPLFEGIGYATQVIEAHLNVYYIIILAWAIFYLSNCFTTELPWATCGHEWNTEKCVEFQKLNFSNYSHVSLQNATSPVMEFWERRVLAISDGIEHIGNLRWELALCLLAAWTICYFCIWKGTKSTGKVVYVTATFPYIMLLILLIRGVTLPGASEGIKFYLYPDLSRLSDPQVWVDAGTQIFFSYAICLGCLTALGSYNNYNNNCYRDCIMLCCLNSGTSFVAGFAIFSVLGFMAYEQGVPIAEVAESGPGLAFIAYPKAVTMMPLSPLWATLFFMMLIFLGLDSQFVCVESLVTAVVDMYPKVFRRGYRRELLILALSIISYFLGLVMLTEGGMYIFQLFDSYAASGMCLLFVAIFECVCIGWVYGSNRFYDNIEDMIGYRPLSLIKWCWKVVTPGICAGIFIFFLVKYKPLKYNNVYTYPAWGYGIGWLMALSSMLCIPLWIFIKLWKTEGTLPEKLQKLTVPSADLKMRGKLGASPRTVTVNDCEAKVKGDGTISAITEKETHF", "test": "[3H]GABA uptake assay in HEK-293 cells stably expressing mGAT4", "format": "cell-based", "details": "[3H]GABA uptake; read-out: pIC50 ± SEM mGAT4 (converted)"}, "mGAT1 [2]": {"molecular_target": "T1, mGAT1", "test": "competitive MS binding assay with NO711 as unlabeled marker (LC-ESI-MS/MS)", "details": "for remaining NO711 binding mGAT1: in the presence of 100 μM inhibitor", "in_short": "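Competitive MS binding with unlabeled NO711 as marker, quantified by LC–ESI-MS/MS. Compounds screened at 100 μM for inhibition of marker binding.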"}, "HEK-293 cells": {"test_system": "HEK-293 cells", "test": "HEK-293 cytotoxicity assay (MTS)", "format": "cell-based, human", "details": "for concentration with significant (p < 0.0001) decrease in HEK-293 cell viability: 72 h of incubation; for concentration of observed antiproliferative effects: summary of HepG2 and HEK-293 assays", "procedure": "Subsequently, a similar study was performed with the HEK-293 cell line.\nHepatotoxicity and cytotoxicity were estimated according to previously described protocols[62] using the hepatoma HepG2 (ATCC HB-8065) and human embryonic kidney HEK-293 (ATCC CRL1573) cell lines, respectively. In brief, cells were seeded in 96-well plates at a density of 0.7 × 10^4 and cultured at 37 °C in an atmosphere containing 5% CO2. Next, the compounds were added and investigated in quadruplicate at concentrations ranging from 0.1 to 100 μM for 72 h. The antiproliferative drug DX was used as the reference. The CellTiter 96 AQueous nonradioactive cell proliferation assay (MTS) purchased from Promega (Madison, WI, USA) was used for the determination of cell viability. The absorbance at 492 nm was measured using an EnSpire microplate reader (PerkinElmer, Waltham, MA, USA)."}, "oxaliplatin-treated mice": {"test_system": "oxaliplatin-treated mice", "test": "oxaliplatin-induced peripheral neuropathy, cold hyperalgesia (cold plate test)", "format": "in vivo, mouse", "procedure": "Before the in vivo tests, the test compounds were suspended in 1% Tween 80 (Baxter, Poland). The compounds were then administered intraperitoneally. […] The test compounds were administered only once daily on days 1 and 7 of oxaliplatin- or paclitaxel-induced neuropathy. In STZ-treated mice, test compounds were administered 21 days after STZ injection. Control mice used in oxaliplatin and paclitaxel NP models were injected with an appropriate amount of vehicle (0.9% saline). Oxaliplatin was purchased from Activate Scientific GmbH (Germany). Paclitaxel and STZ were purchased from Sigma-Aldrich (Poland).\nFor pain studies, oxaliplatin was dissolved in 5% glucose solution (Polfa Kutno, Poland). The dose of oxaliplatin used to induce peripheral neuropathy (10 mg/kg, intraperitoneal injection) was chosen on the basis of previous research[63],[64] and available literature data.[65]\nA cold plate apparatus (hot/cold plate, Bioseb, France) set at 2.5 °C was used to assess the effect of treatment on cold hyperalgesia in oxaliplatin-treated mice. The cold plate test was conducted immediately after the von Frey test. Three hours after oxaliplatin administration, the animals were placed on a cold plate apparatus, and predrug latencies to pain reaction (i.e., lifting, biting, shaking of hind paws, jumping, movement deficits, or writhing response) were collected. Finally, the test compounds were injected, and 1 h later, the postdrug latencies to pain reaction were measured."}, "[3]": {"details": "early phase of oxaliplatin-induced neuropathy, i.p."}}, "data": [{"smiles": "Cc1ccc(CNC(=O)[C@@H](C[C@@H](C)O)N(C)CCC=C2c3ccccc3CCc3ccccc32)cc1", "note": "(relative stereo) [Compound 2RS,4RS-39c, 2-((3-(10,11-Dihydro-5H-dibenzo[a,d][7]annulen-5-ylidene)propyl)(methyl)amino)-4-hydroxy-N-(4-methylbenzyl)pentanamide]", "values": [{"measurement": "remaining [3H]GABA uptake mGAT1", "setting": "mGAT1 [1]; in the presence of 100 μM inhibitor", "value": "100 μM: 52%"}, {"measurement": "IC50", "setting": "mGAT3", "value": 6.61, "unit": "µM"}, {"measurement": "IC50", "setting": "mGAT4", "value": 4.37, "unit": "µM"}, {"measurement": "remaining NO711 binding mGAT1", "setting": "mGAT1 [2]", "value": "100 μM: 69%"}, {"measurement": "concentration with significant (p < 0.0001) decrease in HEK-293 cell viability", "setting": "HEK-293 cells", "value": 25, "unit": "µM"}, {"measurement": "concentration of observed antiproliferative effects", "setting": "HEK-293 cells", "value": 25, "unit": "µM"}, {"measurement": "effect on cold hyperalgesia, cold plate test", "setting": "oxaliplatin-treated mice; [3]", "value": "not effective"}]}, {"smiles": "CN(CCON=C(c1ccccc1)c1ccccc1)C(CCN)C(=O)NCc1ccccc1Cl", "note": "(stereo not drawn) [Compound 50a, 4-Amino-N-[(2-chlorophenyl)methyl]-2-[(2-{[(diphenylmethylidene)amino]oxy}ethyl)(methyl)amino]butanamide]", "values": [{"measurement": "IC50", "setting": "mGAT1 [1]", "value": 20, "unit": "µM"}, {"measurement": "IC50", "setting": "mGAT3", "value": 8.51, "unit": "µM"}, {"measurement": "IC50", "setting": "mGAT4", "value": 20.4, "unit": "µM"}, {"measurement": "Ki", "setting": "mGAT1 [2]; MS binding assay, read-out: pKi ± SEM mGAT1 (converted)", "value": 33.1, "unit": "µM"}, {"measurement": "safety profile in HEK-293 cells", "setting": "HEK-293 cells; 72 h, compared with HepG2", "value": "comparable safety profile in HEK-293 and HepG2 cells"}, {"measurement": "concentration of observed antiproliferative effects", "setting": "HEK-293 cells", "value": 1, "unit": "µM"}, {"measurement": "effect on cold hyperalgesia, cold plate test", "setting": "oxaliplatin-treated mice; [3]", "value": "not effective"}]}, {"smiles": "CN(CCC=C1c2ccccc2CCc2ccccc21)C(CO)C(=O)NCc1ccccc1", "note": "(stereo not drawn) [Compound 56a, N-Benzyl-2-((3-(10,11-dihydro-5H-dibenzo[a,d][7]annulen-5-ylidene)propyl)(methyl)amino)-3-hydroxypropanamide]", "values": [{"measurement": "IC50", "setting": "mGAT1 [1]", "value": 21.4, "unit": "µM"}, {"measurement": "IC50", "setting": "mGAT3", "value": 22.9, "unit": "µM"}, {"measurement": "IC50", "setting": "mGAT4", "value": 9.12, "unit": "µM"}, {"measurement": "remaining NO711 binding mGAT1", "setting": "mGAT1 [2]", "value": "100 μM: 68%"}, {"measurement": "concentration with significant (p < 0.0001) decrease in HEK-293 cell viability", "setting": "HEK-293 cells", "value": 25, "unit": "µM"}, {"measurement": "concentration of observed antiproliferative effects", "setting": "HEK-293 cells", "value": 25, "unit": "µM"}, {"measurement": "effect on cold hyperalgesia, cold plate test", "setting": "oxaliplatin-treated mice; early (acute) phase of oxaliplatin-induced neuropathy, 30 mg/kg i.p., 30 mg/kg", "value": "reduced cold hyperalgesia in the acute phase"}]}]}
